Experimental data as given in patent US5866576A, “Epoxide-containing compounds” (Cell Therapeutics, Inc., priority 1997, dated 1999).

Legend:
Balb/3T3 cells [1] = assay: PDGF-stimulated Balb/3T3 cell proliferation; type: cell-based; details: FIGS. 8A (1409), 8B (1560); PDGF/BB
Experimental: Balb/3T3 cells respond vigorously to PDGF stimulation, and are useful in vitro models for further study of PDGF-induced proliferation. Disregulated PDGF-proliferative response has been linked to a variety of diseases, including, e.g., restenosis, atherosclerosis, fibrosis, and tumor cell angiogenesis.
Balb/3T3 cells were maintained in exponential growth. The cells were removed from a flask with EDTA and plated into 96 well plates at 3000 cells/well. After 48 hours, the media was removed, the cells washed once with PBS and serum free media and the cultures allowed to rest for a 24 hour period. Inventive compounds were added to the wells containing media and Balb/3T3 cells one hour prior to incubation with PDGF/BB, added at constant 10 μM concentrations along with 1 μ Ci 3-H-thymidine dye. Cells were subsequently incubated for 18-24 hours, harvested, and incorporated thymidine assessed on a Packard Topcount to determine degree of cell proliferation. Data obtained in this assay was used to determine experimental 50% inhibition concentrations for the inventive compounds tested.

Balb/3T3 cells [2] = assay: Balb/3T3 cytotoxicity assay (BCECF-AM); type: cell-based; details: FIGS. 8C, 8D
Experimental: In conjuction with the Balb/3T3 proliferation assay conducted above, a Balb/3T3 cytotoxicity assay was conducted to determine that the inhibition on proliferation was not due to cytotoxic effects. This assay is similar to the assay decribed above except tritiated thymidine was not added and after 18-24 hours incubation with PDGF/BB and a lOuM solution of 2,7-bis-(2-carboxyethyl)-5(and-6)carboxyflouresceinacetoxymethyl ester (BCECF-AM) was added for 30 minutes at 37° C. (BCECF is a compound that when cleaved by esterases, yields a fluorescent product in viable cells only, therefore providing a measure of viable cell numbers). Following sufficient incubation, BCECF is replaced with PBS and the plate examined with flourescence in a Millipore "cytofluor." The data is compiled and plotted.

[3] = system: vascular cell adhesion molecule-1 (VCAM) in human umbilical vein endothelial cells (HUVEC); assay: cell surface expression of VCAM in TNF-α stimulated HUVEC, flow cytometry (FIG. 6); type: cell-based; details: TNF-α 20 ng/ml, 20 hrs
Experimental: The HUVEC cells were stimulated with 20 ng/ml TNF-α for 20 hrs and then stained for immunofluorescence using a monoclonal antibody recognizing VCAM, followed by a goat anti-mouse antibody conjugated to phycoerythrin. The cells were analyzed for antibody binding using flow cytometry.
This example illustrates the effects of inventive compounds nos. 1605, 1808 and 1906 to inhibit cell surface expression of vascular cell adhesion molecule-1 (VCAM) in human umbilical vein endothelial cells (HUVEC). The HUVEC cells were stimulated with 20 ng/ml TNF-α for 20 hrs and then stained for immunofluorescence using a monoclonal antibody recognizing VCAM, followed by a goat anti-mouse antibody conjugated to phycoerythrin. The cells were analyzed for antibody binding using flow cytometry.

Ramos B-cell tumor line = assay: B-cell proliferation, Ramos line stimulated with anti-mu or PMA (FIG. 3); type: cell-based, human; details: 250 μM, anti-mu or PMA (5 nM)
Experimental: A Ramos […] tumor line was treated with 250 μM 1808 or 1605 for one hour prior to stimulation of proliferation with anti-mu antibody or phorbol myristic acid (PMA, 5 nM). One day later, proliferation was measured with tritiated thymidine.
This example illustrates a comparison of inventive compounds nos. 1605 and 1808 for inhibition of B-cell proliferation. A Ramos B-cell tumor line was treated with 250 μM 1808 or 1605 for one hour prior to stimulation of proliferation with anti-mu antibody or PMA (5 nM). One day later, proliferation was measured with tritiated thymidine.

[4] = system: U937 cells; human umbilical vein endothelial cells (HUVEC); assay: adhesion of U937 cells to TNF-α activated HUVEC (FIG. 5); type: cell-based; details: TNF-α 20 ng/ml, 12 hours
Experimental: HUVEC cells were activated with 20 ng/ml of TNF for 12 hrs. Drug was added to each culture (except for controls) one hour prior to adding TNF. U937 cells, preloaded with the fluorescent dye BCECF, were added to each culture well and then washed. Cell adhesion was determined on a fluorescence plate reader, showing a decrease in cell adhesion caused by all three drugs in a dose dependent fashion.
This example illustrates a comparison of the effects of inventive compounds nos. 1605, 1808 and 1906 to inhibit adhesion of U937 cells to activated human umbilical vein endothelial cells (HUVEC). HUVEC cells (4000/ well, seeded 72 hours in advance) were activated with 20 ng/ml of TNF-α for 12 hours. Drug was added to the HUVEC (except for controls) one hour prior to adding TNF-α. U937 cells, preloaded with the fluorescent dye BCECF, were added to each culture well and then washed twice with PBS. Cell adhesion was determined by measuring the fluorescence of adhering U937 cells on a fluorescence plate reader.

[5] = system: PBMC (peripheral blood mononuclear cells); assay: two-way mixed lymphocyte reaction, PBMC (FIG. 1); type: cell-based; details: for potency in mixed lymphocyte reaction compared with PTX: PTX not shown on graph
Description: This example illustrates the effects of inventive compounds nos. 1605, 1808 and 1906 as immune modulators in a mixed lymphocyte reaction. […] 1605, 1808 and 1906.

human stromal cells = assay: PDGF-induced proliferation of human stromal cells (FIG. 4); type: cell-based; details: PDGF-BB 50 ng/ml
Experimental: (§1) Human stromal cells were starved in serum-free media for 24 hours and then stimulated with 50 ng/ml of PDGF-BB. The drugs were added at various indicated concentrations one hour prior to PDGF stimulation. Tritiated thymidine was added for 24 hrs at the time of PDGF stimulation to measure cellular proliferation. Background counts were approximately 5% of control levels.
as §1, with “This example illustrates a comparison of inventive compounds nos. 1605, 1808 and 1906 on PDGF-induced (platelet derived growth factor) proliferation of human stromal cells. Human” for “Human”, “hours” for “hrs”

thymocytes [6] = assay: murine thymocyte proliferation assay co-stimulated by ConA and IL-2 (FIGS. 7A-7E); type: cell-based, Balb/C mice; details: Mus musculus, FIG. 7A
Description: This example illustrates dose response curves used to generate 50% inhibition concentrations (IC50) for inventive compounds nos. 1410, 1439, 1541, 1553, 1553S, 1560, 1565, 2548R, 2548S and 2562 in a murine thymocyte proliferation assay, co-stimulated by Concanavalin A (ConA) and interleukin-2 alpha (IL-2). ConA, used to activate the T-cell receptor (TCR), along with IL-2 co-stimulation, induces T-cell proliferation and differentiation. Thymuses, obtained from normal, female Balb/C mice, were dissociated and plated into 96-well plates at a density of 2×10^5 cells/well. ConA (0.25 mg/ml) and IL-2 (15 U/ml) were added to the wells. The cells were incubated for 4 days at 37° C. On day 4, the cells were pulsed with tritiated thymidine and incubated for an additional 4 hours. The amount of tritiated thymidine incorporated by the harvested cells was determined in a liquid scintillation counter. Doses of inventive compounds (shown in FIGS. 7A-7E) were added two hours prior to ConA and IL-2 activation. Background counts were less than 200 cpm. Results obtained, illustrate the ability of the inventive compounds to inhibit thymocyte proliferation and activation. In FIG. 7A, inventive compounds nos. […] FIG. 7B presents additional data for compound no. 1410 and 1553S in this assay. […] FIG. 7C reports assay results for inventive compounds nos. 1439, 1541, 1560 and 1565. […] FIGS. 7D and 7E illustrate assay results for inventive compounds nos. 1541, 1553, 1560 and 1565 (FIG. 7D) and 2562, […] (FIG. 7E). As is true of other inventive compounds tested, all these compounds represented in FIGS. 7D and 7E inhibit thymocyte proliferation. […] 1541, 1553, 1560, 1565, 2562, 2548R and 2548S, respectively.

thymocytes [7] = assay: thymocyte proliferation co-stimulated with Con A and/or IL-1α (FIG. 2); type: cell-based, Balb/C mice; details: three dose levels
Experimental: The thymocytes were obtained from normal female Balb/C mice and stimulated with Concanavalin A (Con A) and/or interleukin-1 alpha (L-1α). Drugs were added to the cell cultures two hours before activation with Con A and/or IL-1α.
This example illustrates a comparison of three dose levels of inventive compounds nos. 1808 and 1906 and no drug control to inhibit thymocyte proliferation. The thymocytes were obtained from normal female Balb/C mice and co-stimulated with Concanavalin A (Con A) and/or IL-1α (interleukin-1 alpha). The thymuses were dissociated and plated into 96-well plates at a density of 2×10^5 cells/well. Dilutions of Con A and/or IL-1α were added to the wells and the cells were incubated for 4 days at 37° C. Drugs were added to the cell cultures two hours before activation with Con A and/or IL-1α. On day 4, the cells were pulsed with tritiated thymidine and allowed to incubate an additional 4 hrs. The cells were harvested and counted.

[8] = system: LPS-induced TNF release in whole human blood; assay: LPS-induced TNF release in whole human blood (FIG. 14); type: cell-based; details: LPS 10 ng/ml, read-out: inhibition of TNF-α induction
Experimental: This example illustrates inhibitive effects of the inventive compounds on LPS-induced TNF release. Data collected is reported as percent inhibition of LPS induced TNF release in whole human blood as compared with control values of TNF release.
In this assay, whole blood was collected from a healthy human donor into Vacutainer tubes containing ACD citrate anti-coagulant. Compounds to be tested were diluted in RPMI medium and added (5 μl) to tubes containing whole blood (225 μl). The tubes were mixed and incubated for a maximum of 1 hour at 37° C. LPS Salmonella abortus equi was diluted in RPMI and added to samples at 20 μl per tube (10 ng/ml final concentration). The prepared tubes were mixed and incubated for 4-6 hours at 37° C. The reaction was terminated by adding 750 μl of RPMI to each tube, then centrifuged to remove cells. Supernatants are collected and stored overnight at 4° C. Supernatant samples are assayed for TNF release using commercial immunoassay kits.

Row | SMILES | inhibition of Balb/3T3 proliferation (Balb/3T3 cells [1]) | cytotoxic effects (Balb/3T3 cells [2]) | mean fluorescence (VCAM surface expression) [3] | inhibition of B-cell proliferation (Ramos B-cell tumor line) | inhibition of U937 cell adhesion to HUVEC [4] | activity in mixed lymphocyte reaction (immune modulation) [5] | potency in mixed lymphocyte reaction compared with PTX [5] | inhibition of PDGF-induced proliferation (human stromal cells) | IC50 (thymocytes [6]) | inhibition of thymocyte proliferation (thymocytes [7]) | inhibition at 50 µM [8]
1 | Cn1c(=O)n(CCCCCCCC2CO2)c(=O)c2c1ncn2COC(=O)C(C)(C)C (centres unmarked) [Compound 1409, 1-(8,9-Oxidononyl)-3-methyl-7-methylpivaloylxanthine] | inhibit Balb/3T3 proliferation | without exhibiting cytotoxic effects | – | – | – | – | – | – | – | – | –
2 | O=C1CCCC(=O)N1CCCCC1CO1 (centres unmarked) [Compound 1605, N-(5,6-Oxidohexyl) glutarimide] | – | – | Mean fluorescence levels were decreased | inhibited proliferation | decrease in cell adhesion induced by TNF-α in a dose dependent fashion | demonstrated activity | more potent than PTX | inhibited PDGF-induced stimulation in a dose response fashion | – | – | –
3 | Cn1ccc(=O)n(CCCCC2CO2)c1=O (centres unmarked) [Compound 1808, 3-(5,6-Oxidohexyl)-1-methyluracil] | – | – | Mean fluorescence levels were decreased | inhibited proliferation | decrease in cell adhesion induced by TNF-α in a dose dependent fashion | demonstrated activity | more potent than PTX | inhibited PDGF-induced stimulation in a dose response fashion | 99 µM | inhibited thymocyte proliferation is a dose-dependent fashion | –
4 | Cc1cn(C)c(=O)n(CCCCC2CO2)c1=O (centres unmarked) [Compound 1906, 3-(5,6-Oxidohexyl)-1-methylthymine] | – | – | Mean fluorescence levels were decreased | – | decrease in cell adhesion induced by TNF-α in a dose dependent fashion | demonstrated activity | more potent than PTX | inhibited PDGF-induced stimulation in a dose response fashion | – | inhibited thymocyte proliferation is a dose-dependent fashion | –
5 | CCCCCCCCC1OC1CCCCCCCCn1c(=O)c2c(ncn2C)n(C)c1=O (centres unmarked) [Compound 2541, 1-(9,10-Oxidooctadecyl)-3,7-dimethylxanthine] | – | – | – | – | – | – | – | – | – | – | 25%
